One experiment concerns the target T1, KRAS (WT) (Homo sapiens, UniProt P01116).
T1 construct: Biotinylated KRAS protein amino acids 1-169 (produced at Erasca); made in house
The experiment in a line: In-vitro RAS-RAF binding assay (RRB), HTRF/FRET. Format: biochemical. Put shortly: (§1)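 Biotinylated KRAS 1-169 (streptavidin-terbium donor, 30 nM) and GST-cRAF RBD (anti-GST d2 acceptor, 30 nM) in HEPES pH 7.5, NaCl, MgCl2, DTT buffer. After compound incubation, SOS1 catalytic domain plus GTPgS drive 60 min nucleotide exchange. HTRF FRET read at equilibrium, in duplicate.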
In general terms: In TR-FRET formats the signal depends on donor and acceptor labels being close together.

A further experiment deals with KRAS G12D (Homo sapiens, UniProt P01116, G12D). Put plainly: In-vitro RAS-RAF binding assay (RRB), HTRF/FRET. Format: biochemical. The arrangement: Biotinylated KRAS protein amino acids 1-169 (produced at Erasca); made in house. Put shortly:
as §1

Setting [1] is: Table 2, average of multiple runs of each compound, read-out: Inhibition of RAS-RAF Binding (in-vitro) KRAS (WT) IC50.
[2] abbreviates: Table 2, average of multiple runs of each compound, read-out: Inhibition of RAS-RAF Binding (in-vitro) KRAS (G12D) IC50.

Like-named read-outs stand apart in the source and are kept apart here.

T1 sequence (P01116 1-169 isoform P01116-2): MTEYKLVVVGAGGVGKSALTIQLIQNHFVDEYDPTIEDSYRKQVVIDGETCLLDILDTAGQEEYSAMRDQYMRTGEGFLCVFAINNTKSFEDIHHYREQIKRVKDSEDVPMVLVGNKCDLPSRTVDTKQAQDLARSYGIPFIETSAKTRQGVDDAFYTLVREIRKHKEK
Chain of KRAS G12D (P01116 1-169 isoform P01116-2 G12D): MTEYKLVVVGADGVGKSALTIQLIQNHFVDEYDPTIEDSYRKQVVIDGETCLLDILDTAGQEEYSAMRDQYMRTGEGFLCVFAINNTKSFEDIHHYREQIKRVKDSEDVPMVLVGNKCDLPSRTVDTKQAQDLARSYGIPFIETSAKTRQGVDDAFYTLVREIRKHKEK

For orientation: IC50 means the point on the concentration scale where inhibition reaches its midpoint. For the compound `C#Cc1c(F)ccc2cc(O)cc(-c3ncc4c(N5CC6CCC(C5)N6)nc(OC[C@@H]5CCCN5CCCC5CCC(=O)N5[C@H](C(=O)N5C[C@H](O)C[C@H]5C(=O)N[C@@H](C)c5ccc(-c6scnc6C)cc5)C(C)(C)C)nc4c3F)c12` (stereo partly drawn) [Example 10, (2S,4R)-1-((2S)-2-(2-(3-((2S)-2-(((4-(3,8-diazabicyclo[3.2.1]octan-3-yl)-7-(8-ethynyl-7-fluoro-3-hydroxynaphthalen-1-yl)-8-fluoropyrido[4,3-d]pyrimidin-2-yl)oxy)methyl)pyrrolidin-1-yl)propyl)-5-oxopyrrolidin-1-yl)-3,3-dimethylbutanoyl)-4-hydroxy-N—((S)-1-(4-(4-methylthiazol-5-yl)phenyl)ethyl)pyrrolidine-2-carboxamide], the IC50 at KRAS (WT) (setting [1]) was found to be 134 nM; on KRAS G12D (setting [2]), 12.7 nM.
In the same order, the values of `C#Cc1c(F)ccc2cc(O)cc(-c3ncc4c(N5CC6CCC(C5)N6)nc(OC[C@@H]5CCCN5CCCOCCC(=O)N[C@H](C(=O)N5C[C@H](O)C[C@H]5C(=O)N[C@@H](C)c5ccc(-c6c(C)ccnc6C)cc5)C(C)(C)C)nc4c3F)c12` [Example 47, (2S,4R)-1-((2S)-2-(3-(3-((2S)-2-(((4-(3,8-diazabicyclo[3.2.1]octan-3-yl)-7-(8-ethynyl-7-fluoro-3-hydroxynaphthalen-1-yl)-8-fluoropyrido[4,3-d]pyrimidin-2-yl)oxy)methyl)pyrrolidin-1-yl)propoxy)propanamido)-3,3-dimethylbutanoyl)-N-((S)-1-(4-(2,4-dimethylpyridin-3-yl)phenyl)ethyl)-4-hydroxypyrrolidine-2-carboxamide] are 22.2 nM and 7.67 nM.
For the compound `Cc1cc(N)nc(-c2c(Cl)cc3c(N4CC5CCC(C4)N5)nc(OC[C@@H]4CCCN4CCCOCCC(=O)N[C@H](C(=O)N4C[C@H](O)C[C@H]4C(=O)N[C@@H](C)c4ccc(-c5scnc5C)cc4)C(C)(C)C)nc3c2F)c1C(F)(F)F` [Example 1, (2S,4R)-1-[(2S)-2-[3-[3-[(2S)-2-[[7-[6-amino-4-methyl-3-(trifluoromethyl)-2-pyridyl]-6-chloro-4-(3,8-diazabicyclo[3.2.1]octan-3-yl)-8-fluoro-quinazolin-2-yl]oxymethyl]pyrrolidin-1-yl]propoxy]propanoylamino]-3,3-dimethyl-butanoyl]-4-hydroxy-N-[(1S)-1-[4-(4-methylthiazol-5-yl)phenyl]ethyl]pyrrolidine-2-carboxamide], the half-maximal inhibitory concentration (IC50) on KRAS (WT) (Table 1, read-out: Inhibition of RAS-RAF Binding (in-vitro) KRAS (WT) IC50) came to 799 nM; at KRAS (WT) (setting [1]), 799 nM; on KRAS G12D (Table 1, read-out: Inhibition of RAS-RAF Binding (in-vitro) KRAS (G12D) IC50), 15 nM; at KRAS G12D (setting [2]) it was 15.4 nM.
In the case of `C#Cc1c(F)ccc2cc(O)cc(-c3ncc4c(N5CC6CCC(C5)N6)nc(OCCN5CCC(COc6cc([C@H](C(=O)N7C[C@H](O)C[C@H]7C(=O)N[C@@H](C)c7ccc(-c8c(F)cc(F)cc8F)cc7)C(C)C)on6)CC5)nc4c3F)c12` [Example 63, (2S,4R)-1-((2R)-2-(3-((1-(2-((4-(3,8-diazabicyclo[3.2.1]octan-3-yl)-7-(8-ethynyl-7-fluoro-3-hydroxynaphthalen-1-yl)-8-fluoropyrido[4,3-d]pyrimidin-2-yl)oxy)ethyl)piperidin-4-yl)methoxy)isoxazol-5-yl)-3-methylbutanoyl)-4-hydroxy-N-((S)-1-(2′,4′,6′-trifluoro-[1,1′-biphenyl]-4-yl)ethyl)pyrrolidine-2-carboxamide], the IC50 at KRAS (WT) (setting [1]) was found to be 8330 nM; at KRAS G12D (setting [2]), 10.6 nM.
Regarding `C#Cc1c(F)ccc2cc(O)cc(-c3ncc4c(N5CC6CCC(C5)N6)nc(OC[C@@H]5CCCN5CCCOCCC(=O)N[C@H](C(=O)N5C[C@H](O)C[C@H]5C(=O)N[C@@H](C)c5ccc(N6CCC[C@H]6C(N)=O)cc5)C(C)(C)C)nc4c3F)c12` [Example 46, (2S,4R)-1-((2S)-2-(3-(3-((2S)-2-(((4-(3,8-diazabicyclo[3.2.1]octan-3-yl)-7-(8-ethynyl-7-fluoro-3-hydroxynaphthalen-1-yl)-8-fluoropyrido[4,3-d]pyrimidin-2-yl)oxy)methyl)pyrrolidin-1-yl)propoxy)propanamido)-3,3-dimethylbutanoyl)-N-((S)-1-(4-((S)-2-carbamoylpyrrolidin-1-yl)phenyl)ethyl)-4-hydroxypyrrolidine-2-carboxamide], the concentration for half-maximal inhibition (IC50) at KRAS (WT) (Inhibition of RAS-RAF Binding (in-vitro) KRAS (WT) IC50 (nM), Table 2, average of multiple runs of each compound) was determined as 21.4 nM; at KRAS G12D (Inhibition of RAS-RAF Binding (in-vitro) KRAS (G12D) IC50 (nM), Table 2, average of multiple runs of each compound), 5.87 nM.
On to `C#Cc1c(F)ccc2cc(O)cc(-c3ncc4c(N5CC6CCC(C5)N6)nc(OC[C@@H]5CCCN5CCCOCCC(=O)N[C@H](C(=O)N5C[C@H](O)C[C@H]5C(=O)N[C@@H](C)c5ccc(-c6c(Cl)cccc6Cl)cc5)C(C)(C)C)nc4c3F)c12` [Example 45], for which the IC50 at KRAS (WT) (setting [1]) was determined as 44.9 nM; on KRAS G12D (setting [2]), 8.97 nM.
Consider `Cc1ccccc1-c1ccc([C@H](C)NC(=O)[C@@H]2C[C@@H](O)CN2C(=O)[C@@H](NC(=O)CCOCCCN2CCC[C@H]2COc2nc(N3CC4CCC(C3)N4)c3cc(Cl)c(-c4ccc(F)c5sc(N)c(C#N)c45)c(F)c3n2)C(C)(C)C)cc1` [Example 26, (2S,4R)-1-((2S)-2-(3-(3-((2S)-2-(((7-(2-amino-3-cyano-7-fluorobenzo[b]thiophen-4-yl)-4-(3,8-diazabicyclo[3.2.1]octan-3-yl)-6-chloro-8-fluoroquinazolin-2-yl)oxy)methyl)pyrrolidin-1-yl)propoxy)propanamido)-3,3-dimethylbutanoyl)-4-hydroxy-N—((S)-1-(2′-methyl-[1,1′-biphenyl]-4-yl)ethyl)pyrrolidine-2-carboxamide], for which the figures for the IC50 at KRAS (WT) (setting [1]) and at KRAS G12D (setting [2]) were 91.8 nM and 12 nM, respectively.
The corresponding values for `Cc1ncsc1-c1ccc([C@H](C)NC(=O)[C@@H]2C[C@@H](O)CN2C(=O)[C@@H](NC(=O)CCCCN2CCC[C@H]2COc2nc(N3CC4CCC(C3)N4)c3cc(Cl)c(-c4ccc(F)c5sc(N)c(C#N)c45)c(F)c3n2)C(C)(C)C)cc1` [Example 89, (2S,4R)-1-((2S)-2-(5-((2S)-2-(((7-(2-amino-3-cyano-7-fluorobenzo[b]thiophen-4-yl)-4-(3,8-diazabicyclo[3.2.1]octan-3-yl)-6-chloro-8-fluoroquinazolin-2-yl)oxy)methyl)pyrrolidin-1-yl)pentanamido)-3,3-dimethylbutanoyl)-4-hydroxy-N-((S)-1-(4-(4-methylthiazol-5-yl)phenyl)ethyl)pyrrolidine-2-carboxamide] are 65.8 nM and 15.2 nM.
Regarding `C#Cc1c(F)ccc2cc(O)cc(-c3ncc4c(N5CC6CCC(C5)N6)nc(OC[C@@H]5CCCN5CCCOCCC(=O)O[C@H](C(=O)N5C[C@H](O)C[C@H]5C(=O)N[C@@H](C)c5ccc(-c6c(C)cccc6C(F)(F)F)cc5)C(C)(C)C)nc4c3F)c12` [Example 50, (S)-1-((2S,4R)-4-hydroxy-2-(((S)-1-(2′-methyl-6′-(trifluoromethyl)-[1,1′-biphenyl]-4-yl)ethyl)carbamoyl)pyrrolidin-1-yl)-3,3-dimethyl-1-oxobutan-2-yl 3-(3-((2S)-2-(((4-(3,8-diazabicyclo[3.2.1]octan-3-yl)-7-(8-ethynyl-7-fluoro-3-hydroxynaphthalen-1-yl)-8-fluoropyrido[4,3-d]pyrimidin-2-yl)oxy)methyl)pyrrolidin-1-yl)propoxy)propanoate], the IC50 at KRAS (WT) (setting [1]) was found to be 98.9 nM; at KRAS G12D (setting [2]) it was 10.2 nM.
In the same order, the values of `C#Cc1c(F)ccc2cc(O)cc(-c3ncc4c(N5CC6CCC(C5)N6)nc(OC[C@@H]5CCCN5CCCOCCC(=O)N[C@H](C(=O)N5C[C@H](O)C[C@H]5C(=O)N[C@@H](C)c5ccc(N6CCC[C@H]6C#N)cc5)C(C)(C)C)nc4c3F)c12` [Example 33, (2S,4R)-1-((2S)-2-(3-(3-((2S)-2-(((4-(3,8-diazabicyclo[3.2.1]octan-3-yl)-7-(8-ethynyl-7-fluoro-3-hydroxynaphthalen-1-yl)-8-fluoropyrido[4,3-d]pyrimidin-2-yl)oxy)methyl)pyrrolidin-1-yl)propoxy)propanamido)-3,3-dimethylbutanoyl)-N—((S)-1-(4-((S)-2-cyanopyrrolidin-1-yl)phenyl)ethyl)-4-hydroxypyrrolidine-2-carboxamide] are 3.05 nM and 7.48 nM.
For the compound `C[C@H](NC(=O)[C@@H]1C[C@@H](O)CN1C(=O)[C@@H](NC(=O)CCOCCCN1CCC[C@H]1COc1nc(N2CC3CCC(C2)N3)c2cc(C(F)(F)F)c(-c3ccc(F)c4sc(N)c(C#N)c34)c(F)c2n1)C(C)(C)C)c1ccc(-c2c(F)cccc2F)cc1` [Example 79, (2S,4R)-1-((2S)-2-(3-(3-((2S)-2-((((7R)-7-(2-amino-3-cyano-7-fluorobenzo[b]thiophen-4-yl)-4-(3,8-diazabicyclo[3.2.1]octan-3-yl)-8-fluoro-6-(trifluoromethyl)quinazolin-2-yl)oxy)methyl)pyrrolidin-1-yl)propoxy)propanamido)-3,3-dimethylbutanoyl)-N-((S)-1-(2′,6′-difluoro-[1,1′-biphenyl]-4-yl)ethyl)-4-hydroxypyrrolidine-2-carboxamide], the IC50 at KRAS (WT) (setting [1]) and on KRAS G12D (setting [2]) was more than 10000 nM in each case.

(Values after US20240293558A1, “KRAS INHIBITOR CONJUGATES” (Erasca, Inc., priority 2021, published 2024).)
